Data on five compounds can be found in patent US8937088B2, “Ureas for the treatment and prevention of cancer” (Astar Biotech LLC, priority 2011, dated 2015).

Each structure is given as a SMILES string. Like-named read-outs stand apart in the source and are kept apart here.

The term inhibition denotes the percentage by which the read-out fell short of the control. Low readings indicate a weak effect, high ones a strong effect.

Assay [1] relates to HUH7 (human hepatoma cell line). The assay is described as follows: Cell death detection, trypan blue exclusion assay, HUH7. The following applies: Huh-7, 168 h, HUH7, 7-day treatment, read-out: Cell Death (%) at Tested Concentration. In kind it is cell-based. On the procedure: (§1) Biological Test 2. Cell Death Detection Using Trypan Blue Exclusion Assay.
(§2) After drug treatment, cells were harvested by trypsinization with trypsin/EDTA for 10 min at 37° C. As some apoptotic cells detached from the culture substratum into the medium, these cells were also collected by centrifugation of the medium at 1,200 rpm for 5 min. The pooled cell pellets were resuspended and mixed with trypan blue dye. After Trypan blue stain was done, cells were counted by using a light microscope and a hemocytometer. Blue dye-incorporating cells were scored as being dead. Five hundred cells from randomly chosen fields were counted, and the number of dead cells was counted and expressed as a percentage of the total number of cells counted as shown in Tables 2 to 8 below.

The test system of assay [2] is Hep3B (human hepatoma cell line). The assay is described as follows: Cell death detection, trypan blue exclusion assay, Hep3B. The following applies: 5-day treatment. In kind it is cell-based. The method, then: as §1, §2
Assay [3] has as its system HUH7 (human hepatoma cell line). The assay is described as follows: Cell death detection, trypan blue exclusion assay, HUH7, in combination with AZD-6244. The settings on record: HUH7, 6-day treatment; for Cell Death (%) in combination with AZD-6244: compound 0.5 μM. In kind it is cell-based. The method, then:
as §1, §2

For assay [4], the system named is HepG2 (human Hepatocellular carcinoma cell line). The experiment in a line: Cell death detection, trypan blue exclusion assay, HepG2. In kind it is cell-based. The following applies: HepG2, 5-day treatment. The method, then:
as §1, §2

Assay [5] concerns LNCaP (human prostate adenocarcinoma cell line). The assay is described as follows: Cell death detection, trypan blue exclusion assay, LNCaP. The following applies: read-out: Cell Death (%) at Tested Concentration. In kind it is cell-based. On the procedure:
as §1, §2

Assay [6] deals with HT29 (human colon adenocarcinoma cell line). The assay is described as follows: Cell death detection, trypan blue exclusion assay, HT29. In kind it is cell-based. The following applies: HT29, 5-day treatment. On the procedure: as §1, §2
For a further assay, the target named is T1, FLT3 (Homo sapiens, UniProt P36888).
T1 sequence (P36888 27-993): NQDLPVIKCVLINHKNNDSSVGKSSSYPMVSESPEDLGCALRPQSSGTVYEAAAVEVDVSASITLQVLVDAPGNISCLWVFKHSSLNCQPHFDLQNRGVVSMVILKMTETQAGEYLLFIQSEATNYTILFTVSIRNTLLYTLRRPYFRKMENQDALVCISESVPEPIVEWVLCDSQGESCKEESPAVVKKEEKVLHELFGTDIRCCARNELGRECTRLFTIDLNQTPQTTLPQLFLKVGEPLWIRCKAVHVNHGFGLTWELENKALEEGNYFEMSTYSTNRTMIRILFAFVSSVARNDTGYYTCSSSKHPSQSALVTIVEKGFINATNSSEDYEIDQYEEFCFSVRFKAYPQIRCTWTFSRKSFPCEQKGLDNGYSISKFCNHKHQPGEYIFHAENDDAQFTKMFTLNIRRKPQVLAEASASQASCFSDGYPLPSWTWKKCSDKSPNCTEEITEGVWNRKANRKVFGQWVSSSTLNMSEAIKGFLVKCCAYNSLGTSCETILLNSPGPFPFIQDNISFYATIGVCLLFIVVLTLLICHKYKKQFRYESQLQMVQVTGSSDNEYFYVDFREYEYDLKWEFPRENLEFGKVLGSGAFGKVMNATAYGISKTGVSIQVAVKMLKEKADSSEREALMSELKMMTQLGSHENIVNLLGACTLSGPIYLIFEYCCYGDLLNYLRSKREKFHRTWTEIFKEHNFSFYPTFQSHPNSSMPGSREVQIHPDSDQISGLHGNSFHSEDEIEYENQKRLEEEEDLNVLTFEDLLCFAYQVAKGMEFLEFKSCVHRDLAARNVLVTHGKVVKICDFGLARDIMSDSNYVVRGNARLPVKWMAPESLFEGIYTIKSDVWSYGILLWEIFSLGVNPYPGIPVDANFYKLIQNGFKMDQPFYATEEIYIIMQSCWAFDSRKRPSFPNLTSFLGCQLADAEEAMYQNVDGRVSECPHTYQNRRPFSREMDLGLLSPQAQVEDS
The experiment in a line: In vitro kinase assay (Invitrogen SelectScreen Profiling Service), FLT3. In kind it is biochemical. The following applies: FLT3, 0.1 μM. On the procedure: (§3) Biological Test 1. In Vitro Kinase Assay for BRAF, FLT3 and KDR(VEGFR2) The inhibitory activities of the compounds of the invention were measured by Invitrogen's SelectScreen® Profiling Service.

The next assay concerns the target KDR(VEGFR2) (Homo sapiens, UniProt P35968). The assay is described as follows: In vitro kinase assay (Invitrogen SelectScreen Profiling Service), KDR. It is filed as biochemical. On the procedure: as §3
In a further assay the target is BRAF (Homo sapiens, UniProt P15056). The experiment in a line: In vitro kinase assay (Invitrogen SelectScreen Profiling Service), BRAF. It is filed as biochemical. The method, then:
as §3

Chain of KDR(VEGFR2) (P35968 20-1356): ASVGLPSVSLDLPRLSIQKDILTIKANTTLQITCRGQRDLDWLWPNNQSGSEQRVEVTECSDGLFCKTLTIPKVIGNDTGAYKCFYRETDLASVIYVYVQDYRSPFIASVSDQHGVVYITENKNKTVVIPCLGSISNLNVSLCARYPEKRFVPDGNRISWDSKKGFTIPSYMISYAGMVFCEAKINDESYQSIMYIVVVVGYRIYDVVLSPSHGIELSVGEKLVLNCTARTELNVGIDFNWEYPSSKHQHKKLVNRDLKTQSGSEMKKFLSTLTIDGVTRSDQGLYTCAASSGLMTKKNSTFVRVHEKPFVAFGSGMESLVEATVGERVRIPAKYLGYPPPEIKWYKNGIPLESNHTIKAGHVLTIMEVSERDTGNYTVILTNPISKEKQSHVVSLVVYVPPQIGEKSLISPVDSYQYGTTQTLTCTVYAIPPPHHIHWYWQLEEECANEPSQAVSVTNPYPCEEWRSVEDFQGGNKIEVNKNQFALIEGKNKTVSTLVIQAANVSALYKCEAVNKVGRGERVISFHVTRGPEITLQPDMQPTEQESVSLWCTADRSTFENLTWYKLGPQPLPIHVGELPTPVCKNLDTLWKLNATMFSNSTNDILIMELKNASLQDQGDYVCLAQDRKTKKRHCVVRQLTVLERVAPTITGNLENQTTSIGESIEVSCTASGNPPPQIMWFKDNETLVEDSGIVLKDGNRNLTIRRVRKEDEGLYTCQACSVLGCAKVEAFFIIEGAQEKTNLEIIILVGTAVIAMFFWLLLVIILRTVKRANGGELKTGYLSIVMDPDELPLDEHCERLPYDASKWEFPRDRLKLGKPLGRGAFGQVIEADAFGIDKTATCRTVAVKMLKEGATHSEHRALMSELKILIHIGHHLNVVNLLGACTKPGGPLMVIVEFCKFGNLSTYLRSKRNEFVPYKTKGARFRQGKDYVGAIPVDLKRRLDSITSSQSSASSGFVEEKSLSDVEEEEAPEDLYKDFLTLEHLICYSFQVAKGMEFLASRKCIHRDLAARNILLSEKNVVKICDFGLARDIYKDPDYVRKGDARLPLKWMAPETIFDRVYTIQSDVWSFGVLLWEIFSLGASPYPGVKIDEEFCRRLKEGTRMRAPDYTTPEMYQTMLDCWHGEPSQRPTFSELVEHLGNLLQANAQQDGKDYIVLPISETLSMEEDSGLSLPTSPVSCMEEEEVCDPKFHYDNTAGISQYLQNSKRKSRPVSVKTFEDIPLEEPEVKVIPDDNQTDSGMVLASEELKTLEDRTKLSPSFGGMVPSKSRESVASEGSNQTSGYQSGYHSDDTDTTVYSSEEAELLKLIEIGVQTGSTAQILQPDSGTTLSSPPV
Chain of BRAF (P15056 whole entry): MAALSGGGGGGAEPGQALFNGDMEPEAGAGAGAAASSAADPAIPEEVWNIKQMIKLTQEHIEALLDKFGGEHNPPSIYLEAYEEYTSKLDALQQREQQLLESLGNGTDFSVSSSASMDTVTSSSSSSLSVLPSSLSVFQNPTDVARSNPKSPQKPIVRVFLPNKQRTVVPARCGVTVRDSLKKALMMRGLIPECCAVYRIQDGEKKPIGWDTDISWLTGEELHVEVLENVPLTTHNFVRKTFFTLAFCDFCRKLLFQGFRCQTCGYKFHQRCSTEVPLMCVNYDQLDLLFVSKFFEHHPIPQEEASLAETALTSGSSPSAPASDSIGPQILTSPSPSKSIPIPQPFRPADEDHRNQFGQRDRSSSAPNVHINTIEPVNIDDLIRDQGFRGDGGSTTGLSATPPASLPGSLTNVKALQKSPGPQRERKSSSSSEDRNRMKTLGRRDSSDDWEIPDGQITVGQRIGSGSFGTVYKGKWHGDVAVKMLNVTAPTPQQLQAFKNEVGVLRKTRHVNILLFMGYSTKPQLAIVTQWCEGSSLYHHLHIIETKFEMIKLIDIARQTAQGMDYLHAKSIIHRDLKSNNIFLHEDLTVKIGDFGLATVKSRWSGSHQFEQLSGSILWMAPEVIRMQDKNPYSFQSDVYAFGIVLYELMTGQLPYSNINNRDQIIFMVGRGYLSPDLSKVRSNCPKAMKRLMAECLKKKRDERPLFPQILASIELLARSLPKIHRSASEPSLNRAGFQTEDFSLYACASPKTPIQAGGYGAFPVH

Regarding `CNC(=O)c1cc(Oc2ccc(NC(=O)Nc3cc(S(F)(F)(F)(F)F)ccc3Cl)c(F)c2)ccn1` [Example 6, 4-[4-({[2-chloro-5-(pentafluoro-λ^6-sulfanyl)phenyl]carbamoyl}amino)-3-fluorophenoxy]-N-methylpyridine-2-carboxamide], the cytotoxicity at 1 µM in assay [1] amounted to 2%; in assay [5] (72 h, 3-day treatment) it was 1.1%; in assay [5] (168 h, 7-day treatment) it was 1.7%. The cytotoxicity at 2.5 µM is 2.2% in assay [1]; 1.3% in assay [5] (72 h, 3-day treatment); 1.9% in [5] (168 h, 7-day treatment). The cytotoxicity at 5 µM in assay [1] is 7.4%; in [5] (72 h, 3-day treatment), 1.2%; in assay [5] (168 h, 7-day treatment) it was 2.4%. The cytotoxicity at 7.5 µM came to 32.1% in [1]; 3.6% in [5] (72 h, 3-day treatment); 4.8% in [5] (168 h, 7-day treatment). Further, the cytotoxicity at 10 µM in assay [1] is 35.4%; in assay [5] (72 h, 3-day treatment), 4.3%; in assay [5] (168 h, 7-day treatment) it was 13.4%. Further, the “Cell Death (%) at Tested Concentration” value in assay [2] (0.25 uM) came to 3.9%; in assay [2] (3.0 uM), 38.4%; in assay [2] (5.0 uM), 89.6%; in [4] (0.25 uM), 2.6%; in assay [4] (3.0 uM), 90.7%; in [4] (5.0 uM), 99%. Also, the “Cell Death (%) at Tested Concentration” value was 11.7% in [6] (2.5 uM), 13.4% in assay [6] (5.0 uM) and 22.1% in [6] (10 uM). In addition, the results for the “Cell Death (%) in combination with AZD-6244” value (“Cell Death (%) in combination” below) in assay [3] (AZD-6244 0 μM) and in [3] (AZD-6244 0.5 μM) were 2.1% and 99%, respectively.

Turning to `CNC(=O)c1cc(Oc2ccc(NC(=O)Nc3cccc(S(F)(F)(F)(F)F)c3)c(F)c2)ccn1` [Example 2, 4-[3-fluoro-4-({[3-(pentafluoro-λ^6-sulfanyl)phenyl]carbamoyl}amino)phenoxy]-N-methylpyridine-2-carboxamide], the inhibition at 0.1 µM on FLT3 is 71%; at KDR(VEGFR2), 76%; at BRAF, 14%. Moreover, the cytotoxicity at 1 µM in assay [1] stood at 2.4%; in [5] (72 h, 3-day treatment), 1.7%; in assay [5] (168 h, 7-day treatment), 1.5%. Also, the cytotoxicity at 2.5 µM worked out at 7.3% in [1]; 1.8% in assay [5] (72 h, 3-day treatment); 2.7% in assay [5] (168 h, 7-day treatment). The cytotoxicity at 5 µM turned out to be 42.6% in [1]; 1.6% in assay [5] (72 h, 3-day treatment); 2.5% in [5] (168 h, 7-day treatment). Moreover, the cytotoxicity at 7.5 µM in [1] worked out at 72.6%; in assay [5] (72 h, 3-day treatment) it was 4.2%; in assay [5] (168 h, 7-day treatment), 17.3%. Further, the cytotoxicity at 10 µM is 75.2% in assay [1]; 83.7% in [5] (72 h, 3-day treatment); 99% in assay [5] (168 h, 7-day treatment). Moreover, the “Cell Death (%) at Tested Concentration” value was found to be 4.1% in assay [2] (0.25 uM); 92.7% in assay [2] (3.0 uM); 98.5% in assay [2] (5.0 uM); 2.2% in assay [4] (0.25 uM); 94.7% in [4] (3.0 uM); 99% in assay [4] (5.0 uM). The “Cell Death (%) at Tested Concentration” value in assay [6] (2.5 uM) was found to be 12.3%; in assay [6] (5.0 uM), 14.7%; in [6] (10 uM), 24.8%. Also, the “Cell Death (%) in combination” value in assay [3] (AZD-6244 0 μM) was 3.6%; in assay [3] (AZD-6244 0.5 μM), 99%.

With `CNC(=O)c1cc(Oc2ccc(NC(=O)Nc3cccc(S(F)(F)(F)(F)F)c3)cc2)ccn1` [Example 1, N-methyl-4-[4-({[3-(pentafluoro-λ^6-sulfanyl)phenyl]carbamoyl}amino)phenoxy]pyridine-2-carboxamide], the inhibition at 0.1 µM against FLT3 was determined as 85%; on KDR(VEGFR2), 79%; at BRAF, 18%. Moreover, the cytotoxicity at 1 µM came to 2% in assay [1]; 1.6% in [5] (72 h, 3-day treatment); 1.6% in assay [5] (168 h, 7-day treatment). Moreover, the cytotoxicity at 2.5 µM in assay [1] is 5.1%; in assay [5] (72 h, 3-day treatment), 1.5%; in [5] (168 h, 7-day treatment) it was 2.8%. In addition, the cytotoxicity at 5 µM in assay [1] stood at 18.3%; in [5] (72 h, 3-day treatment) it was 1.3%; in assay [5] (168 h, 7-day treatment), 2.8%. In addition, the cytotoxicity at 7.5 µM in assay [1] amounted to 52.7%; in assay [5] (72 h, 3-day treatment), 7.3%; in assay [5] (168 h, 7-day treatment), 99%. The cytotoxicity at 10 µM in [1] turned out to be 72.3%; in assay [5] (72 h, 3-day treatment) it was 62.5%; in assay [5] (168 h, 7-day treatment), 99%. Besides, the “Cell Death (%) at Tested Concentration” value in assay [2] (0.25 uM) amounted to 3.8%; in assay [2] (3.0 uM) it was 22.3%; in assay [2] (5.0 uM) it was 92.7%; in [4] (0.25 uM), 2.6%; in assay [4] (3.0 uM), 32.4%; in assay [4] (5.0 uM), 84.5%. The “Cell Death (%) at Tested Concentration” value in assay [6] (2.5 uM) was 12.4%; in [6] (5.0 uM), 14.5%; in assay [6] (10 uM), 68.7%. Also, the “Cell Death (%) in combination” value in [3] (AZD-6244 0 μM) turned out to be 2.3%; in [3] (AZD-6244 0.5 μM), 99%.

As to `CNC(=O)c1cc(Oc2ccc(NC(=O)Nc3cc(S(F)(F)(F)(F)F)ccc3Cl)cc2)ccn1` [Example 5, 4-[4-({[2-chloro-5-(pentafluoro-λ^6-sulfanyl)phenyl]carbamoyl}amino)phenoxy]-N-methylpyridine-2-carboxamide], in [1], the cytotoxicity at 1 µM came out at 1.7%, the cytotoxicity at 2.5 µM was determined as 3.1%, the cytotoxicity at 5 µM amounted to 4.3% and the cytotoxicity at 7.5 µM is 17.2%. Besides, the cytotoxicity at 10 µM in assay [1] stood at 19.8%. Moreover, in [5] (72 h, 3-day treatment), the cytotoxicity at 1 µM was 1%, the cytotoxicity at 2.5 µM came out at 1.5%, the cytotoxicity at 5 µM was found to be 1.4% and the cytotoxicity at 7.5 µM was 2.1%. Moreover, the cytotoxicity at 10 µM in assay [5] (72 h, 3-day treatment) worked out at 7.6%. Also, in [5] (168 h, 7-day treatment), the cytotoxicity at 1 µM stood at 1.8%, the cytotoxicity at 2.5 µM amounted to 1.9%, the cytotoxicity at 5 µM came to 2.3% and the cytotoxicity at 7.5 µM was determined as 4.6%. The cytotoxicity at 10 µM in assay [5] (168 h, 7-day treatment) is 14.7%.

With `Cn1cnc2c(F)c(Nc3ccc(Br)cc3Cl)c(C(=O)NOCCO)cc21` [AZD-6244, reference compound], in [3] (AZD-6244 0.5 μM, no other compound (0)), the “Cell Death (%), AZD-6244 alone” value is on record as 2.3%.
